The values that follow come from US20030134859A1 (SANKYO COMPANY, LIMITED, priority 2000, published 2003).

The subject of one assay is Rat white adipocytes. The assay is described as follows: Stimulation of differentiation of the adipocytes (Oil Red O). It is filed as cell-based. Conditions: 100 nM test compound, 5 days, Oil Red O ABS550, control = 100%, blank = 0%, Table 7; for activity at 0.1 µM: Rattus norvegicus, Adipocyte, 120 h, read-out: Rate of Differentiation (%). The protocol: Rat white adipocytes contained in the white adipocyte culture kit, which was purchased from HOKUDO, were used. Mediums for proliferation and for differentiation-inducing, which were contained in the white adipocyte culture kit purchased from HOKUDO, were used.
Immediately after arrival of the purchased cells, all medium for transportation was discarded and replaced with 5 ml of proliferation medium (/25 cm^2-flask) and the cells were cultured for one day. Then, a cell suspension was prepared with proliferation medium so as to be 83,000 cells/mL, and the suspension was plated into a type I 96-well collagen-coated microplate (SUMITOMO BAKELITE CO., ltd.) so as to be 5,000 cells/well (60 μL/well). For the blank, the proliferation medium without the cells was plated into the well (blank well) of each plate.
Further, 1) in the group treated with the test compound, 3 μL/well of a solution in which the test compound (100 μM) was dissolved in DMSO solution and diluted with differentiation-inducing medium by 20 times (final concentration of the test compound: 100 nM, final concentration of DMSO: 0.1% (v/v)) were added to the well where the cells were plated. 2) In the control group, 3 μL/well of DMSO solution that was diluted with differentiation-inducing medium by 20 times (final concentration of DMSO: 0.1% (v/v)) were added to the well where the cells were plated. Further, 3) in the blank group, 3 μL/well of DMSO solution that was diluted with differentiation-inducing medium by 20 times (final concentration: 0.1% (v/v)) were added to the blank well.
After culturing for 5 days, all differentiation-inducing medium was discarded and replaced with 60 μL of 10% (v/v) of formaldehyde solution (for fixation) in each well and the cells were kept stationary for 20 min at room temperature. After this the fixative solution was discarded and replaced with 60 μL of 0.2% (v/v) Triton X (Sigma-Aldrich Japan K. K.) solution in each well and kept stationary for 5 min at the room temperature. Then all Triton X solution was discarded and replaced with 60 μL of 60% (v/v) isopropanol solution containing dissolved Oil Red 0 (Sigma-Aldrich Japan K. K.) so as to be 0.3%, which was adipose tissue staining solution, and the well was left stationary for 10 min at room temperature. After the adipose tissue staining solution was discarded, the well was washed twice with 60 μL of 60% (v/v) isopropanol solution. Then, 100 μL of the DMSO were added to each well and stirred for 5 min at room temperature. The absorbance was measured at 550 nm (ABS550) with a multi-plate reader (LabsSystems), and the stained amount by Oil Red 0 was determined. The measured level at ABS550 in the control group was defined as 100%, while the level at ABS550 in the blank group was defined as 0%. The differentiation rate (%) of the adipocytes treated with the test compound was calculated.

The next assay has as its system leptin production. The assay is described as follows: Enhancing activity for leptin production in adipocytes (ELISA). It is filed as cell-based, rat. Particulars: Rattus norvegicus, Adipocyte, 24 h, leptin concentration as % of control group, read-out: Facilitating activity to produce leptin. In outline: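 Leptin release, quantified by rat leptin ELISA, expressed as percent of 0.1% DMSO control after 24 h at 37 °C. Cells were floating adipocytes isolated by collagenase digestion of epididymal fat from male 6-week Wistar Imamichi rats; compound tested at 1 nM–1 µM final.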

Where a name gives a salt, the structure may show the parent alone.

With `CCNc1ccc(NC(=O)c2cc([N+](=O)[O-])ccc2Cl)cc1` [Example 115, N-(4-Ethylaminophenyl)-(2-chloro-5-nitrophenyl)carboxamide mono-hydrochloride], the activity at 0.1 µM in the assay on Rat white adipocytes stood at 147%. Still for that read-out and setting: the value for `CCN(CC)c1ccc(NC(=O)c2cc([N+](=O)[O-])ccc2Cl)c(C)c1` [Example 131, N-[4-(Diethylamino)-2-methylphenyl]-(2-chloro-5-nitrophenyl)carboxamide] was 132%; that for `O=C(Nc1ccc(N2CCNCC2)cc1)c1cc([N+](=O)[O-])ccc1Cl` [Example 133, N-[4-(Piperazin-1-yl)phenyl]-(2-chloro-5-nitrophenyl)carboxamide] was 141%. As to `CCCCCCNc1ccc(NC(=O)c2cc([N+](=O)[O-])ccc2Cl)cc1` [Example 137, N-(4-n-Hexylaminophenyl)-(2-chloro-5-nitrophenyl)carboxamide], the activity at 0.1 µM in the assay on Rat white adipocytes amounted to 150%. Take `CC(C)(C)c1cc(C(=O)Nc2cccc(NC(=O)c3cc([N+](=O)[O-])ccc3Cl)c2)cc(C(C)(C)C)c1O` [Example 162, N-[3-[(3,5-di-tert-Butyl-4-hydroxybenzoyl)amino]phenyl]-(2-chloro-5-nitrophenyl)carboxamide]: the activity at 1 µM in the assay with leptin production amounted to 111%. In the assay with Rat white adipocytes, the activity at 0.1 µM was 170%. As to `CC(C)(C)OC(=O)N1CCN(C(=O)c2ccc(NC(=O)c3cc([N+](=O)[O-])ccc3Cl)cc2)CC1` [Example 166, N-[4-(4-tert-Butoxycarbonylpiperazin-1-ylcarbonyl)phenyl]-(2-chloro-5-nitrophenyl)carboxamide], the activity at 1 µM in the assay on leptin production is 114%. Besides, the activity at 0.1 µM with leptin production (100 nm) and in the assay on Rat white adipocytes was 115% each time. With `CCOC(=O)Cc1ccc(NC(=O)c2cc([N+](=O)[O-])ccc2Cl)cc1` [Example 168, Ethyl [4-(2-chloro-5-nitrobenzoylamino)phenyl]acetate], in the assay with Rat white adipocytes, the activity at 0.1 µM was 140%. Still for that read-out and setting: to `CCN(CC)c1ccc(NC(=O)c2cc([N+](=O)[O-])ccc2Cl)cc1` [Example 172, N-(4-Diethylaminophenyl)-(2-chloro-5-nitrophenyl)carboxamide] belongs 120%; to `Nc1ccc2nc(NC(=O)c3cc([N+](=O)[O-])ccc3Cl)sc2c1` [Example 261, N-(6-Aminobenzothiazol-2-yl]-(2-chloro-5-nitrophenyl)carboxamide], 129%; to `CS(=O)(=O)Nc1ccc(-c2csc(NC(=O)c3cc([N+](=O)[O-])ccc3Cl)n2)cc1` [Example 262, N-[4-(4-Methanesulfonylaminophenyl)thiazol-2-yl]-(2-chloro-5-nitrophenyl)carboxamide], 167%. With `CC(=O)Nc1ccc(-c2csc(NC(=O)c3cc([N+](=O)[O-])ccc3Cl)n2)cc1` [Example 263, N-[4-(4-Acetylaminophenyl)thiazol-2-yl]-(2-chloro-5—nitrophenyl)carboxamide], in the assay on Rat white adipocytes, the activity at 0.1 µM came to 154%. Take `NC(=O)N1CCN(c2ccc(NC(=O)c3cc([N+](=O)[O-])ccc3Cl)cc2)CC1` [Example 264, N-[4-[(4-Aminocarbonyl)piperazin-1-yl]phenyl]-(2-chloro-5-nitrophenyl)carboxamide]: the “Rate of Differentiation (%)” value in the assay with Rat white adipocytes is listed as 111.5%. For the molecule `CC(=O)Nc1cccc(-c2csc(NC(=O)c3cc([N+](=O)[O-])ccc3Cl)n2)c1` [Example 277, N-[4-(3-Acetylaminophenyl)thiazol-2-yl]-(2-chloro-5-nitrophenyl)carboxamide], the activity at 0.1 µM in the assay on Rat white adipocytes stood at 123%. Turning to `CC(=O)Nc1ccc2nc(NC(=O)c3cc([N+](=O)[O-])ccc3Cl)sc2c1` [Example 280, N-(6-Acetylaminobenzothiazol-2-yl)-(2-chloro-5-nitrophenyl)carboxamide], the activity at 0.1 µM in the assay on Rat white adipocytes was 190%. Take `NC(=O)Nc1ccc2nc(NC(=O)c3cc([N+](=O)[O-])ccc3Cl)sc2c1` [Example 281, N-(6-Aminocarbonylaminobenzothiazol-2-yl)-(2-chloro-5-nitrophenyl)carboxamide]: in the assay on Rat white adipocytes, the activity at 0.1 µM came out at 200%.
